Laboratory results: ChEMBL document CHEMBL1136564, “Sordaricin antifungal agents” (2003)
Converted amounts (≈) assume the structure as drawn. The source made the active and inactive calls. The rule behind the calls is not given here.

What was measured:
[1] = test system: Nakaseomyces glabratus; assay: Minimum inhibitory concentration required to inhibit 90 to 100% visible growth of Candida glabrata; type: functional
[2] = test system: Candida albicans; assay: Minimum inhibitory concentration to inhibit 90 to 100% visible growth of Candida albicans; type: functional
[3] = test system: HEp-2; assay: In vitro cytotoxic concentration against Hep2 cells.; type: functional; details: Homo sapiens
[4] = In vitro therapeutic index (calculated as CC50/MIC (Candida albicans)).; type: functional
[5] = test system: HEp-2; assay: Cytotoxic concentration against Hep2 cells; activation observed, but IC50 could not be determined; type: functional, cell-based; details: Homo sapiens

Row | SMILES | MIC [1] [µg/mL] | MIC [2] [µg/mL] | CC50 [3] [µg/mL] | Therapeutic index [4] | CC50 [5]
1 | CC(C)C1=CC2CC3(C=O)[C@@H]4CC[C@@H](C)[C@H]4CC2(C(O)CCC2CCCCC2)[C@]13C(=O)O (stereo partly drawn) | 16 (≈ 36.1 µM) | 0.5 (≈ 1.13 µM) | 1.5 (≈ 3.39 µM) | 3 | –
2 | CC(C)CCCCC(=O)C12C[C@@H]3[C@H](C)CC[C@H]3C3(C=O)CC1C=C(C(C)C)[C@@]23C(=O)O | > 128 | 0.5 (≈ 1.17 µM) | 2.5 (≈ 5.83 µM) | 5 | –
3 | CC(C)C1=CC2CC3(C=O)[C@@H]4CC[C@@H](C)[C@H]4CC2(C(=O)C#CCC2CCCC2)[C@]13C(=O)O | 0.125 (≈ 0.286 µM) | < 0.06 | 0.9 (≈ 2.06 µM) | > 15 | –
4 | CC(C)CCC(=O)C12C[C@@H]3[C@H](C)CC[C@H]3C3(C=O)CC1C=C(C(C)C)[C@@]23C(=O)O | 1 (≈ 2.5 µM) | > 128 | 2.5 (≈ 6.24 µM) | < 0.02 | –
5 | CC(C)C1=CC2CC3(C=O)[C@@H]4CC[C@@H](C)[C@H]4CC2(C(O)C#CCC2CCCC2)[C@]13C(=O)O (stereo partly drawn) | 16 (≈ 36.5 µM) | 1 (≈ 2.28 µM) | 14.2 (≈ 32.4 µM) | 14.2 | –
6 | CC(C)CCCC#CC(=O)C12C[C@@H]3[C@H](C)CC[C@H]3C3(C=O)CC1C=C(C(C)C)[C@@]23C(=O)O | 0.25 (≈ 0.57 µM) | < 0.06 | 1.4 (≈ 3.19 µM) | > 23.3 | –
7 | CC(C)C1=CC2CC3(C=O)[C@@H]4CC[C@@H](C)[C@H]4CC2(C(=O)CC2CCCCC2)[C@]13C(=O)O | 1 (≈ 2.34 µM) | 0.5 (≈ 1.17 µM) | 1.8 (≈ 4.22 µM) | 3.6 | –
8 | CCCCC#CC(=O)C12C[C@@H]3[C@H](C)CC[C@H]3C3(C=O)CC1C=C(C(C)C)[C@@]23C(=O)O | 0.5 (≈ 1.22 µM) | < 0.06 | 3.3 (≈ 8.04 µM) | > 55 | –
9 | CC(C)C1=CC2CC3(C=O)[C@@H]4CC[C@@H](C)[C@H]4CC2(C(=O)C#CCC2CCCCC2)[C@]13C(=O)O | 0.5 (≈ 1.11 µM) | < 0.06 | 1.4 (≈ 3.11 µM) | > 23.3 | –
10 | CCCCCCC(=O)C12C[C@@H]3[C@H](C)CC[C@H]3C3(C=O)CC1C=C(C(C)C)[C@@]23C(=O)O | 4 (≈ 9.65 µM) | 0.25 (≈ 0.603 µM) | 1.5 (≈ 3.62 µM) | 6 | –
11 | CC(C)CCC(O)C12C[C@@H]3[C@H](C)CC[C@H]3C3(C=O)CC1C=C(C(C)C)[C@@]23C(=O)O (stereo partly drawn) | 64 (≈ 159 µM) | 16 (≈ 39.7 µM) | – | – | inactive
12 | CC(C)C1=CC2CC3(C=O)[C@@H]4CC[C@@H](C)[C@H]4CC2(C(=O)C#Cc2ccccc2)[C@]13C(=O)O | 16 (≈ 37.2 µM) | > 128 | > 12 | 0.09 | –
13 | CC(C)C1=CC2CC3(C=O)C4CC[C@@H](C)C4CC2(CCOC(=O)[C@@H]2CCCN2C(=O)OC(C)(C)C)C13C(=O)O (stereo partly drawn) | 128 (≈ 235 µM) | 16 (≈ 29.4 µM) | – | – | –
14 | CC(C)C1=CC2CC3(C=O)C4CC[C@@H](C)C4CC2(CCOC(=O)c2ccc4[nH]cnc4c2)C13C(=O)O (stereo partly drawn) | > 128 | > 128 | – | – | –
15 | CC(C)CCCCC(O)C12C[C@@H]3[C@H](C)CC[C@H]3C3(C=O)CC1C=C(C(C)C)[C@@]23C(=O)O (stereo partly drawn) | 32 (≈ 74.3 µM) | 1 (≈ 2.32 µM) | 1.2 (≈ 2.79 µM) | 1.2 | –
16 | CCCCCCC(O)C12C[C@@H]3[C@H](C)CC[C@H]3C3(C=O)CC1C=C(C(C)C)[C@@]23C(=O)O (stereo partly drawn) | 32 (≈ 76.8 µM) | 4 (≈ 9.6 µM) | 2.4 (≈ 5.76 µM) | 0.6 | –
17 | CC(C)C1=CC2CC3(C=O)C4CC[C@@H](C)C4CC2(CCOC(=O)c2ccccc2)C13C(=O)O (stereo partly drawn) | > 128 | 32 (≈ 71 µM) | – | – | –

Row | SMILES | MIC [1] [µg/mL] | MIC [2] [µg/mL] | CC50 [3] [µg/mL] | Therapeutic index [4] | CC50 [5]
18 | CC(C)C1=CC2CC3(C=O)[C@@H]4CC[C@@H](C)[C@H]4CC2(C(O)CC2CCCCC2)[C@]13C(=O)O (stereo partly drawn) | 8 (≈ 18.7 µM) | 2 (≈ 4.67 µM) | 3.1 (≈ 7.23 µM) | 1.6 | –
19 | CC(C)C1=CC2CC3(C=O)C4CC[C@@H](C)C4CC2(CCOC(=O)c2ccc(Br)cc2)C13C(=O)O (stereo partly drawn) | > 128 | > 128 | – | – | –
20 | CC(C)C1=CC2CC3(C=O)[C@@H]4CC[C@@H](C)[C@H]4CC2(C(=O)CCC2CCCCC2)[C@]13C(=O)O | > 128 | 0.5 (≈ 1.13 µM) | 1.8 (≈ 4.09 µM) | 3.6 | –
21 | C=Cc1ccc(C(=O)OCCC23CC4C(CC[C@H]4C)C4(C=O)CC2C=C(C(C)C)C43C(=O)O)cc1 (stereo partly drawn) | > 128 | 4 (≈ 8.39 µM) | – | – | –
22 | CC(C)C1=CC2CC3(C=O)C4CC[C@@H](C)C4CC2(CCOC(=O)c2ccc(Cl)nc2)C13C(=O)O (stereo partly drawn) | > 128 | 4 (≈ 8.23 µM) | – | – | –
23 | CC(C)C1=CC2CC3(C=O)C4CC[C@@H](C)C4CC2(CCOC(=O)CCN2CCCCC2)C13C(=O)O (stereo partly drawn) | > 128 | > 128 | – | – | –
24 | CC(C)C1=CC2CC3(C=O)C4CC[C@@H](C)C4CC2(CCOC(=O)Cc2ccco2)C13C(=O)O (stereo partly drawn) | 64 (≈ 141 µM) | 2 (≈ 4.4 µM) | – | – | –
25 | CC(C)CCC#CC(O)C12C[C@@H]3[C@H](C)CC[C@H]3C3(C=O)CC1C=C(C(C)C)[C@@]23C(=O)O (stereo partly drawn) | 8 (≈ 18.8 µM) | 1 (≈ 2.34 µM) | 15.8 (≈ 37 µM) | 15.8 | –
26 | CC(C)C1=CC2CC3(C=O)C4CC[C@@H](C)C4CC2(CCOC(=O)C2CCCC2)C13C(=O)O (stereo partly drawn) | 4 (≈ 9.04 µM) | 0.125 (≈ 0.282 µM) | – | – | –
27 | CC(C)C1=CC2CC3(C=O)[C@@H]4CC[C@@H](C)[C@H]4CC2(C(O)C#CCC2CCCCC2)[C@]13C(=O)O (stereo partly drawn) | 4 (≈ 8.84 µM) | 0.25 (≈ 0.552 µM) | 10.7 (≈ 23.6 µM) | 42.8 | –
28 | CC(C)=CC(=O)OCCC12CC3C(CC[C@H]3C)C3(C=O)CC1C=C(C(C)C)C32C(=O)O (stereo partly drawn) | 16 (≈ 37.3 µM) | 0.5 (≈ 1.17 µM) | – | – | –
29 | CCCCC#CC(O)C12C[C@@H]3[C@H](C)CC[C@H]3C3(C=O)CC1C=C(C(C)C)[C@@]23C(=O)O (stereo partly drawn) | 32 (≈ 77.6 µM) | 8 (≈ 19.4 µM) | 18.3 (≈ 44.4 µM) | 2.3 | –
30 | CC(C)C1=CC2CC3(C=O)C4CC[C@@H](C)C4CC2(CCOC(=O)CNC(=O)OC(C)(C)C)C13C(=O)O (stereo partly drawn) | > 128 | 128 (≈ 254 µM) | – | – | –
31 | CC(C)C1=CC2CC3(C=O)C4CC[C@@H](C)C4CC2(CCOC(=O)Cc2ccc(N(C)C)cc2)C13C(=O)O (stereo partly drawn) | > 128 | 1 (≈ 1.97 µM) | – | – | –
32 | CC(C)C1=CC2CC3(C=O)C4CC[C@@H](C)C4CC2(CCOC(=O)c2cc(C(=O)O)[nH]n2)C13C(=O)O (stereo partly drawn) | > 128 | > 128 | – | – | –
33 | CC(C)C1=CC2CC3(C=O)C4CC[C@@H](C)C4CC2(CCOC(=O)C2CCC2)C13C(=O)O (stereo partly drawn) | 8 (≈ 18.7 µM) | 0.5 (≈ 1.17 µM) | – | – | –
